# Measurements published in patent US20250282752A1, “Quinazoline Derivative Salt Crystal Form, Preparation Method and Application” (WEISHANG (SHANGHAI) BIO-PHARMACEUTICAL CO., LTD., priority 2018, published 2025).
# Structures can show the parent of a compound that is named as a salt. Where two headings read alike, the source gives them in different places.
# Experiments:
# [1] = biological target: T1, Breast cancer resistance protein (BCRP) (Homo sapiens, UniProt Q9UNQ0); test: BCRP efflux substrate; type: in vitro ADME
# T1 sequence (Q9UNQ0 1-655): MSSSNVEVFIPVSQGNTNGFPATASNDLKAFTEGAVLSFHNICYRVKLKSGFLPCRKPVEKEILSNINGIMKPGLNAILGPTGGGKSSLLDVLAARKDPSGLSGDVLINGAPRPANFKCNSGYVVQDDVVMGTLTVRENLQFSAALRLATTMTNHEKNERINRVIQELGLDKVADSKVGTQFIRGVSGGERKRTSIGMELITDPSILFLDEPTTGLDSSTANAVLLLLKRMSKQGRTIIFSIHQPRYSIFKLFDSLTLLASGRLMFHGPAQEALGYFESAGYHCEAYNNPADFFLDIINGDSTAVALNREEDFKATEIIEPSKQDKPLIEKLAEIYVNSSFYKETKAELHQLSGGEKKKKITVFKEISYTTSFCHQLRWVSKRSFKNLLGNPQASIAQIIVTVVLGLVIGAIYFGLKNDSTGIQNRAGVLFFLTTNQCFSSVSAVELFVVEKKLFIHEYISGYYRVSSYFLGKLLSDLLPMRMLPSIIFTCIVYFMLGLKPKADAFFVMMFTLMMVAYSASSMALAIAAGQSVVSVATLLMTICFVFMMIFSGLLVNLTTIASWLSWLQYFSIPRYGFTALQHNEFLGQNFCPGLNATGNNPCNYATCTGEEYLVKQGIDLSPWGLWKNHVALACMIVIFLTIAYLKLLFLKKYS
# EGFR enzyme = EGFR enzyme (Homo sapiens, UniProt P00533); test: EGFR enzyme inhibition mechanism (ADP-Glo, ATP titration); type: biochemical; settings: ATP diluted from 600 uM, EGFR 0.4 nM to 0.0125 nM; FIG. 24
# Experimental: In the experiment of the quinazoline derivative (I) of the present invention on the mechanism of inhibiting EGFR, the EGFR enzyme was added to the 384-well plate from 6 concentrations diluted in equal proportions (2 times) of 0.4 nM to 0.0125 nM and 0 concentration in polyE4Y1 solution, incubate for 15 minutes, add 7 concentrations of ATP diluted from 600 uM in equal proportions (2 times) to react for 60 minutes, add ADP-Glo reagent and detection reagent for 40 minutes to measure RLU signal. […] The benefits of this mechanism of action are obvious. The quinazoline derivative (I) of the present invention has this mechanism of action, showing high activity and high selectivity, and has the characteristics of small side effects and resistance to drug resistance.
# [2] = test system: PC-9 tumor cell (EGFR Del 19 mutation); test: CellTiter-Glo cell viability, PC-9 tumor cells; type: cell-based; settings: 72 hours, read-out: Inhibition of growth of PC-9 tumor cell (EGFR Del 19 mutation), IC50
# Experimental: (§1) Add 100 microliters of CellTiter-Glo reagent to each well and mix on an orbital shaker for 2 minutes to induce cell lysis. The plate was incubated at room temperature for 10 minutes to stabilize the luminescence signal. The luminescence signal was recorded on the TECAN Infinite M1000 Pro instrument.
# [3] = Blood-brain barrier penetration in rats; type: in vivo, rat; settings: oral, four hours after administration
# Experimental: To determine whether the quinazoline derivative (I) can cross the blood-brain barrier (BBB), the test compound was administered to rats orally. Four hours after the administration, the rats were killed, blood and brain tissue were collected, and the concentration of the test compound was analyzed. Brain penetration is defined as the ratio of the concentration of the compound in brain tissue to the concentration in plasma. Crossing the blood-brain barrier is the ratio of the free concentration of the drug in the brain tissue to the free concentration of the drug in the plasma. P-glycoprotein is an efflux protein of the blood-brain barrier, which discharges the P-glycoprotein substrate […]. Breast cancer resistance protein is an efflux protein from the blood-brain barrier, which excretes […].
# [4] = Equilibrium solubility in water; type: physicochemical; settings: room temperature, 24 hours, listed as quinazoline derivative (I) free base
# Experimental: Experimental method: Weigh about 10 mg of solid sample (free base and various salt forms and crystal forms), add 1.5 mL of water, and after equilibrate at room temperature for 24 hours, take out 0.3 mL of turbid solution, and centrifuge to separate the lower solid and supernatant. After the supernatant was filtered through a 0.45 μm (PTFE) filter, the concentration of free alkali was tested.
# [5] = test system: patient primary brain tumor tissue with EGFRVIII mutation; test: Subcutaneous PDX mouse model of glioma with […] mutation; type: in vivo; settings: orally, twice a day, three weeks
# Experimental: The patient's primary tumor tissue (brain tumor) was implanted under the skin of the mouse, and the tumor grew to about 150 cubic millimeters, and the medication was started for three weeks. […] The second group of quinazoline derivatives (I) single agent, 3 mg/kg, orally, twice a day, the third group of quinazoline derivatives (I) single agent, 10 mg/kg, orally, two times a day, the fourth group of quinazoline derivatives (I) is a single agent, 20 mg/kg, orally, twice a day.
# P-glycoprotein = P-glycoprotein (Homo sapiens, UniProt P08183); test: P-gp efflux substrate; type: in vitro ADME
# Sequence of P-glycoprotein (P08183 whole entry): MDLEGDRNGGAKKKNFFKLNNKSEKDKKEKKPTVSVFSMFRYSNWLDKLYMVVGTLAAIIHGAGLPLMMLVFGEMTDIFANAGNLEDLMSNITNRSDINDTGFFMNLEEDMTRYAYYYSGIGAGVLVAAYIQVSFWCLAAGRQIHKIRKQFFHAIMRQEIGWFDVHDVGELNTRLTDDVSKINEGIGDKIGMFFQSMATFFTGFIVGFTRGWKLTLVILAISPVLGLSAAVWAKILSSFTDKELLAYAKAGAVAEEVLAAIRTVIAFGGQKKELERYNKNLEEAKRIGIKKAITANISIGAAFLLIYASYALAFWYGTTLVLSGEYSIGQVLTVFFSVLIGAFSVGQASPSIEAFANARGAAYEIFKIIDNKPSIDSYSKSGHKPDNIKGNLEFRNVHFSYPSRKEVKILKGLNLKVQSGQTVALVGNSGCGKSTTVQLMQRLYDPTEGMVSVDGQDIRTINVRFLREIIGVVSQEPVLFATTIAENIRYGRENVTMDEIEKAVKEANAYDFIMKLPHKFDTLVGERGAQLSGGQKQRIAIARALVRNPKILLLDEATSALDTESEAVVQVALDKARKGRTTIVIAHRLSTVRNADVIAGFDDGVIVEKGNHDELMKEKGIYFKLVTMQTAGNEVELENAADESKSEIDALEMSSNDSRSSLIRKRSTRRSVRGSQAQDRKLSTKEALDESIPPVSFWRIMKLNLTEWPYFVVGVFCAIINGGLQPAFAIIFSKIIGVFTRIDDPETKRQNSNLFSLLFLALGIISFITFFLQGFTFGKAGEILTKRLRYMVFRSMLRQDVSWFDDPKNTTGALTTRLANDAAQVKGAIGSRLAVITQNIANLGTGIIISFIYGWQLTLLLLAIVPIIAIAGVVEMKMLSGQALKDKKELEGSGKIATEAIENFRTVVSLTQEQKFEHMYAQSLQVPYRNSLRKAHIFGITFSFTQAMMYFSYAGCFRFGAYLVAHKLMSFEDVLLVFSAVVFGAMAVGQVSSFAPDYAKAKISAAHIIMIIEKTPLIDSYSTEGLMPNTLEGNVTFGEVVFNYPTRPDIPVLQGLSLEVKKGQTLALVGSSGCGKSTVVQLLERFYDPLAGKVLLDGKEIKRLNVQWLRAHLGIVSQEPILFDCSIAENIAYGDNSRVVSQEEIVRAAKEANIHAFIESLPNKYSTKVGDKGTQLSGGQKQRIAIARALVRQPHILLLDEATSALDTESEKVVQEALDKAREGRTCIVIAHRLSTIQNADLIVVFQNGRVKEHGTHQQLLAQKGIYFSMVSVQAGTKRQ
# EGFRV3 (EGFRVIII) = EGFRV3 (EGFRVIII) (Homo sapiens, UniProt P00533, DELINS30-297G); test: Western blot of […] phosphorylation; type: cell-based; settings: FIG. 21
# Source text: FIG. 21 is a schematic diagram of the inhibition of […] phosphorylation by quinazoline derivatives of the present invention;
# It can be seen from Table 22 that the quinazoline derivative (I) with the configuration of R according to the present invention has unexpected […] mutation activity, which is >100 times higher activity than the enantiomer activity while has similar biological activity for EGFR Del 19 activating mutation.
# [6] = test system: Glioma PDX with EGFRVIII mutation; test: CellTiter-Glo cell viability, glioma tumor cells; type: cell-based
# Experimental: as §1
# [7] = Rat pharmacokinetic study; type: in vivo; settings: rats; for bioavailability: intravenous 1-2 mg/kg, oral 2-40 mg/kg
# Experimental: In the rat pharmacokinetic study, a group of rats (three rats) were injected intravenously with 1-2 mg/kg, and the second group of rats (three rats) were orally administered 2-40 mg/kg at 7 time points (0.25, 0.5, 1, 2, 4, 8, 16 hours) of the quinazoline derivative (I) of the present invention. Take blood to measure the concentration of the quinazoline derivative (I) of the present invention in the blood, and calculate the peak area and half-life. The calculation method of bioavailability is: (peak area of drug oral/oral dose)/(peak area of drug intravenous injection/intravenous dose)×100%.
# [8] = TGA/DSC behaviour during heating; type: physicochemical; settings: heating process; for weight loss during heating (TGA): FIG. 23A; for stability of crystal form during heating (DSC): FIG. 23B
# [9] = listed as quinazoline derivatives (I)
# [10] = listed as quinazoline derivative fumarate salt
compound,measurement,setting,value
"C#Cc1cccc(Nc2ncnc3cc(OC)c(O[C@@H]4CCN(C)CC4(F)F)cc23)c1F [quinazoline derivative (I), (R)-6-[(3,3-difluoro-1-methylpiperidin-4-yl)oxy]-N-(3-Ethynyl-2-fluorophenyl)-7-methoxyquinazolin-4-amine]",BCRP efflux substrate,[1],not a P-glycoprotein or BCRP substrate
same,BCRP efflux substrate,[1]; [9],no
same,mechanism of inhibiting EGFR,EGFR enzyme,non-ATP competition mechanism
same,IC50,[2],8 nM
same,Blood brain barrier penetration rate (free concentration in brain tissue / free concentration in plasma),[3]; [9],>50%
same,Kp at 4 h,"[3]; rat, brain tissue / plasma (free concentrations), read-out: Blood brain barrier penetration rate (free concentration in brain tissue / free concentration in plasma)",> 0.5
same,equilibrium solubility in water,[4],<5 µg/mL
same,tumor reduction,[5]; 20 mg/kg,caused tumor reduction
same,inhibition of tumor growth vs control group,"[5]; 3, 10 and 20 mg/kg, FIG. 22",good inhibition of tumor growth
same,P-gp efflux substrate,P-glycoprotein,not a P-glycoprotein or BCRP substrate
same,P-gp efflux substrate,P-glycoprotein; [9],no
same,phosphorylation of EGFRV3,EGFRV3 (EGFRVIII),inhibited
same,EGFRVIII mutation activity relative to the enantiomer,[6]; R configuration vs S enantiomer,> 100 times
same,IC50,"[6]; read-out: Inhibition of growth of Glioma PDX with EGFRVIII mutation, IC50, 72 hours, CellTiter-Glo",10 nM
"C#Cc1cccc(Nc2ncnc3cc(OC)c(O[C@@H]4CCN(C)CC4(F)F)cc23)c1F [Hydrochloride crystal form B, (R)-6-[(3,3-difluoro-1-methylpiperidin-4-yl)oxy]-N-(3-Ethynyl-2-fluorophenyl)-7-methoxyquinazolin-4-amine]",bioavailability,"[7]; rat, blood, po, read-out: bioavailability",> 60%
"C#Cc1cccc(Nc2ncnc3cc(OC)c(O[C@@H]4CCN(C)CC4(F)F)cc23)c1F [fumarate crystal form A, (R)-6-[(3,3-difluoro-1-methylpiperidin-4-yl)oxy]-N-(3-Ethynyl-2-fluorophenyl)-7-methoxyquinazolin-4-amine]",half-life,"[7]; rat, blood",7.4 h
same,bioavailability,[7],80%
same,weight loss during heating (TGA),[8],no significant weight loss
same,weight loss during heating (TGA),[8]; [10],without significant weight loss
same,stability of crystal form during heating (DSC),[8],good stability
same,stability of crystal form during heating (DSC),[8]; [10],the crystal form is stable during heating
